Measurements published in patent US9994554B2, “Barbiturate and thiobarbiturate compounds for use in cancer therapy” (NUHOPE, LLC, priority 2011, dated 2018).

System: U87-MG cells
Experiment: U87-MG resazurin cell assay (Example 13)
Assay type: cell-based
Settings: Homo sapiens, U-87 MG; U87-MG, 5 days (120 hrs) incubation; read-out: Activity Score (Mean pXC50) (converted)
Experimental: U87-MG cells were obtained from the ATCC, LGC Standards (#HTB-14). The cells were screened for mycoplasma (Mycoplasma Experience) and maintained in Biowhittaker Alpha MEM (Lonza #BE02-002F+10% dialyzed US FBS serum (Invitrogen #26400-044), 1% Penstrep (Gibco #15140-122).
Compounds to be tested were transferred into column 1 of a hit plate (96-well PPV Greiner #651201). 20 ul of DMSO was added to columns 2 to 11. The top concentration was 10 mM.
Serial dilution, ten-point one in three dilution curves were created using Perkin Elmer Janus (20 ul clear Robopack disposable tips #6000677 used).
2 ul of each of the compounds was transferred by pre-dispensing into black, clear bottom 96-well CellBIND Corning plates (Fisher #DPS-184-030R) using Platemate 2×2 (ThermoFisher Darts #5506).
200 μl of U87-MG cells were added to columns 1 to 11 at a density of 1000 cells per ml, and media only was dispensed into control column 12 using Wellmate (Small bore tubing set #201-30002).
After 5 days (120 hrs) incubation at 37° C. under 5% CO2 in a humidified incubator, the assay was “stopped” by addition of Resazurin sodium salt at 0.5 mM final concentration (Sigma R7017). The plates were incubated for a further 4 hrs before resorufin readout was taken from a Perkin Elmer EnVision, 550 nm excitation (photo550, Barcode 312), 580 nm emission (M580, Barcode 233), Top Mirror BODIPY (D555, Barcode 405).

Compound	IC50
CCN1C(=O)C(=C/C=C/c2cccc(Cl)c2)C(=O)N(CC)C1=S [DDD00175293]	31.6 to 100 µM
O=C1NC(=O)C(=Cc2ccccc2)C(=O)N1 [DDD00175828]	> 100 µM
O=C1NC(=O)C(=Cc2ccc(F)cc2)C(=O)N1 [DDD00175831]	> 100 µM
CN1C(=O)C(=CC2=Cc3cc(Cl)ccc3OC2)C(=O)N(C)C1=O [DDD00175830]	31.6 to 100 µM
CCN1C(=O)NC(=O)/C(=C\C=C\c2cccc(Cl)c2)C1=O [DDD00175297]	≤ 1 µM
Cc1ccc(/C=C/C=C2C(=O)NC(=O)NC2=O)cc1 [DDD00175796]	1 to 10 µM
CCN1C(=O)C(=C2C=C(c3ccccc3)CCC2)C(=O)N(CC)C1=S [DDD00175338]	> 100 µM
CCN1C(=O)NC(=O)/C(=C\C=C\c2cccc(N(C)C)c2)C1=O [DDD00197341]	1 to 10 µM
COc1ccccc1/C=C/C=C1C(=O)NC(=S)NC1=O [DDD00175819]	1 to 10 µM
CCN1C(=O)C(=C/C=C/c2ccc(F)cc2)C(=O)N(CC)C1=S [DDD00175839]	31.6 to 100 µM
CCN1C(=O)NC(=O)/C(=C\C=C\c2ccccc2N(C)C)C1=O [DDD00197344]	1 to 10 µM
O=C1NC(=O)C(=C/C=C/c2cccc(F)c2)C(=O)N1 [DDD00197332]	1 to 10 µM
CCN1C(=O)NC(=O)/C(=C\C=C\c2ccccc2F)C1=O [DDD00175810]	1 to 10 µM
CCN1C(=O)NC(=O)/C(=C\C=C\c2ccc(F)cc2)C1=O [DDD00175841]	1 to 10 µM
CN1C(=O)C(=C/C=C/c2cccc(F)c2)C(=O)N(C)C1=O [DDD00197351]	1 to 10 µM
CN1C(=O)C(=C/C=C/c2ccccc2)C(=O)N(C)C1=O [DDD00175285]	1 to 10 µM
O=C1NC(=O)C(=C/C=C/c2cccnc2)C(=O)N1 [DDD00197336]	10 to 31.6 µM
CCN1C(=O)NC(=O)/C(=C\C=C\c2ccccc2C)C1=O [DDD00175813]	1 to 10 µM
CCN1C(=O)NC(=O)/C(=C\C=C\c2ccc(C)cc2)C1=O [DDD00175801]	1 to 10 µM
COc1cccc(C=C2C(=O)NC(=O)NC2=O)c1 [DDD00175827]	> 100 µM
O=C1NC(=O)C(=C/C=C/c2ccc(Cl)cc2)C(=O)N1 [DDD00175286]	≤ 1 µM
O=C1NC(=O)C(=Cc2cccc(F)c2)C(=O)N1 [DDD00175822]	> 100 µM

Compound	IC50
CN1C(=O)C(=C/C=C/c2ccc(N(C)C)cc2)C(=O)N(C)C1=O [DDD00175795]	31.6 to 100 µM
CCN1C(=O)/C(=C\C=C\c2ccco2)C(=O)N(C2CCOCC2)C1=O [DDD00175792]	10 to 31.6 µM
CN1C(=O)C(=C/C=C/c2c(F)cccc2F)C(=O)N(C)C1=O [DDD00197343]	1 to 10 µM
O=C1NC(=O)C(=Cc2cccc(Cl)c2)C(=O)N1 [DDD00175823]	> 100 µM
O=C1NC(=O)C(=Cc2ccc(Cl)c(Cl)c2)C(=O)N1 [DDD00175836]	> 100 µM
N#Cc1ccc(/C=C/C=C2C(=O)NC(=S)NC2=O)cc1 [DDD00175806]	31.6 to 100 µM
N#Cc1ccc(/C=C/C=C2C(=O)NC(=O)NC2=O)cc1 [DDD00175802]	10 to 31.6 µM
CCN1C(=O)NC(=O)/C(=C2\C=C(c3ccccc3)CCC2)C1=O [DDD00175332]	> 100 µM
O=C1NC(=O)C(=CC2=Cc3ccccc3OC2)C(=O)N1 [DDD00175835]	31.6 to 100 µM
O=C1NC(=O)C(=Cc2ccccc2F)C(=O)N1 [DDD00175821]	> 100 µM
CN1C(=O)C(=C/C=C/c2ccccc2N(C)C)C(=O)N(C)C1=O [DDD00197338]	1 to 10 µM
COc1ccc(C=C2C(=O)NC(=O)NC2=O)cc1 [DDD00175838]	> 100 µM
CN(C)c1ccc(/C=C/C=C2C(=O)NC(=O)NC2=O)cc1 [DDD00175803]	10 to 31.6 µM
CN1C(=O)C(C(C)(O)/C=C/c2ccccc2)C(=O)N(C)C1=O (stereo not shown) [DDD00197352]	> 100 µM
CCN1C(=O)C(=C/C=C/c2ccc(N(C)C)cc2)C(=O)N(CC)C1=S [DDD00197342]	31.6 to 100 µM
CCN1C(=O)C(=C/C=C/c2ccccc2OC)C(=O)N(CC)C1=S [DDD00197350]	10 to 31.6 µM
CN1C(=O)C(=Cc2ccco2)C(=O)N(C)C1=O [DDD00175280]	> 100 µM
COc1ccc(/C=C/C=C2C(=O)NC(=O)NC2=O)cc1 [DDD00175799]	1 to 10 µM
N#Cc1ccccc1/C=C/C=C1C(=O)NC(=O)NC1=O [DDD00197348]	1 to 10 µM
CCN1C(=O)C(=C/C=C/c2ccc(C)cc2)C(=O)N(CC)C1=S [DDD00175807]	31.6 to 100 µM
O=C1NC(=O)C(=C/C=C/c2ccc(Cl)cc2Cl)C(=O)N1 [DDD00175271]	1 to 10 µM
COc1ccccc1/C=C/C=C1C(=O)NC(=O)NC1=O [DDD00175832]	1 to 10 µM

Compound	IC50
O=C1NC(=O)C(=C/C=C/c2ccccc2[N+](=O)[O-])C(=O)N1 [DDD00175834]	1 to 10 µM
CN(C)c1ccccc1/C=C/C=C1C(=O)NC(=S)NC1=O [DDD00197337]	10 to 31.6 µM
COc1ccc2c(c1)OCC(C=C1C(=O)N(C)C(=O)N(C)C1=O)=C2 [DDD00175826]	31.6 to 100 µM
Cc1ccc(/C=C/C=C2C(=O)NC(=S)NC2=O)cc1 [DDD00175798]	1 to 10 µM
Cc1ccccc1/C=C/C=C1C(=O)NC(=S)NC1=O [DDD00197329]	1 to 10 µM
O=C1NC(=O)C(=C/C=C/c2c(F)cccc2F)C(=O)N1 [DDD00197331]	1 to 10 µM
CCN1C(=O)NC(=O)/C(=C\C=C\c2ccc(OC)cc2)C1=O [DDD00175797]	1 to 10 µM
O=C1NC(=O)C(=Cc2ccccn2)C(=O)N1 [DDD00175837]	> 100 µM
COc1ccc(/C=C/C=C2C(=O)N(C)C(=O)N(C)C2=O)cc1 [DDD00175794]	1 to 10 µM
Cc1ccccc1/C=C/C=C1C(=O)NC(=O)NC1=O [DDD00175809]	1 to 10 µM
CN1C(=O)C(=C/C=C/C2CCCCC2)C(=O)N(C)C1=O [DDD00197709]	10 to 31.6 µM
O=C1NC(=O)C(=CC2CCCCC2)C(=O)N1 [DDD00175825]	> 100 µM
O=C1NC(=S)NC(=O)C1=C/C=C/c1cccc(F)c1 [DDD00197339]	1 to 10 µM
CCN1C(=O)C(=C/C=C/c2c(F)cccc2F)C(=O)N(CC)C1=S [DDD00197345]	31.6 to 100 µM
CCN1C(=O)/C(=C/C=C/c2ccccc2C)C(=O)NC1=S [DDD00197330]	1 to 10 µM
O=C1NC(=O)C(Cc2ccccc2)C(=O)N1 [DDD00175824]	> 100 µM
CCN1C(=O)/C(=C/C=C/c2ccc(F)cc2)C(=O)NC1=S [DDD00175840]	31.6 to 100 µM
O=C1NC(=S)NC(=O)C1=C/C=C/c1ccccc1F [DDD00197349]	1 to 10 µM
CN1C(=O)C(=C/C=C/c2cccc(N(C)C)c2)C(=O)N(C)C1=O [DDD00197346]	1 to 10 µM
CCN1C(=O)/C(=C\C=C\c2ccccc2)C(=O)N(C2CCOCC2)C1=O [DDD00175789]	1 to 10 µM
CCN1C(=O)C(=C/C=C/c2ccccc2C)C(=O)N(CC)C1=S [DDD00175816]	10 to 31.6 µM
CN(C)c1ccccc1/C=C/C=C1C(=O)NC(=O)NC1=O [DDD00197357]	1 to 10 µM

Compound	IC50
O=C1NC(=O)C(=C/C=C/c2ccc(F)cc2)C(=O)N1 [DDD00175842]	1 to 10 µM
CN1C(=O)C(=C/C=C/c2ccccc2F)C(=O)N(C)C1=O [DDD00175811]	1 to 10 µM
COc1ccc(/C=C/C=C2C(=O)NC(=S)NC2=O)cc1 [DDD00175805]	1 to 10 µM
O=C1NC(=O)C(=Cc2ccncc2)C(=O)N1 [DDD00175820]	> 100 µM
O=C1NC(=O)C(=C/C=C/c2ccccc2F)C(=O)N1 [DDD00175808]	1 to 10 µM
CN1C(=O)C(=Cc2c[nH]c3ccccc23)C(=O)N(C)C1=O [DDD00175791]	> 100 µM
O=C1NC(=O)C(=C/C=C/c2ccccc2Cl)C(=O)N1 [DDD00175339]	1 to 10 µM
COc1ccccc1/C=C/C=C1C(=O)N(C)C(=O)N(C)C1=O [DDD00175818]	1 to 10 µM
Cn1cc(/C=C/c2ccccc2)c(=O)n(C)c1=O [DDD00197671]	> 100 µM
CCN1C(=O)C(=C/C=C/c2ccc(Cl)cc2)C(=O)N(CC)C1=S [DDD00175281]	31.6 to 100 µM
CCN1C(=O)NC(=O)/C(=C\C=C\c2cccc(F)c2)C1=O [DDD00197347]	1 to 10 µM
O=C1NC(=O)C(=Cc2cccnc2)C(=O)N1 [DDD00175833]	> 100 µM
O=C1NC(=O)C(=C/C=C/c2cccc(Cl)c2)C(=O)N1 [DDD00175302]	≤ 1 µM
CCN1C(=O)/C(=C/C=C/c2ccccc2OC)C(=O)NC1=S [DDD00197355]	1 to 10 µM
O=C1NC(=O)C(=Cc2c[nH]c3ccccc23)C(=O)N1 [DDD00175790]	> 100 µM
CCN1C(=O)/C(=C/C=C/c2cccc(F)c2)C(=O)NC1=S [DDD00197354]	10 to 31.6 µM
CCN1C(=O)NC(=O)/C(=C\C=C\c2ccccc2OC)C1=O [DDD00175817]	1 to 10 µM
CCN1C(=O)C(=C/C=C/c2ccc(OC)cc2)C(=O)N(CC)C1=S [DDD00175800]	31.6 to 100 µM
CCN1C(=O)NC(=O)/C(=C\C=C\c2ccc(N(C)C)cc2)C1=O [DDD00175804]	1 to 10 µM
